Values of other authors in PMC5314429, “Enhancing PET Signal at Target Tissue in Vivo: Dendritic and Multimeric Tris(hydroxypyridinone) Conjugates for Molecular Imaging of αvβ3 Integrin Expression with Gallium-68” (Bioconjugate Chemistry, 2016).

Set-up: method as in PMID 16821777

log K1 for Fe^3+: 32.52
pFe^3+ (pH 7.4, [Fe^3+] = 10^–6 M, [Ligand] = 10^–5 M): 28.47
SMILES: CC(=O)NC(CCC(=O)NCc1c(O)c(=O)cc(C)n1C)(CCC(=O)NCc1c(O)c(=O)cc(C)n1C)CCC(=O)NCc1c(O)c(=O)cc(C)n1C [THP-Ac]
